Measurements as given in article PMC10384408, “Anticancer Tungstenocenes with a Diverse Set of (O,O–), (O,S–) and (O,N–) Chelates—A Detailed Biological Study Using an Improved Evaluation via 3D Spheroid Models” (Pharmaceutics, 2023).

Tests used:
[1] = test system: CH1/PA-1 (ovarian teratocarcinoma) cells; assay: MTT cytotoxicity assay, CH1/PA-1 monolayer; format: cell-based, human; conditions: exposure time 96 h, mean ± SD
Protocol: (§1) CH1/PA-1 (ovarian teratocarcinoma), SW480 (colon carcinoma) and A549 (non-small cell lung cancer) cells were maintained as described in the reference. IMR-90 human fetal lung fibroblasts (from the European Collection of Authenticated Cell Cultures, Porton Down, Salisbury, UK) were cultured in Stable Cell^TM DMEM/F12 supplemented with 0.01 mg/mL human recombinant insulin (both purchased from Sigma-Aldrich) and 10% fetal bovine serum (FBS, BioWest, Nuaillé, France). Human colon carcinoma cell lines HCT116 and HT29 (both kindly provided by the Institute of Cancer Research, Department of Medicine I, Medical University of Vienna, Austria) were cultured in McCoy’s 5a medium supplemented with 4 mM L-glutamine (both purchased from Sigma-Aldrich) and 10% FBS. MCF-7 human breast adenocarcinoma cells (kindly provided by M. Ogris, Department of Pharmaceutical Sciences, University of Vienna, Austria) were maintained in DMEM (high glucose) supplemented with 4 mM L-glutamine, 0.1 mg/mL human insulin (all purchased from Sigma-Aldrich) and 10% FBS. All cell lines were grown as monolayers in 75 cm^2 culture flasks (CytoOne, Starlab, Hamburg, Germany) at 37 °C in a humidified atmosphere containing 5% CO2.
Exponentially growing cells were plated into 96-well microculture plates (CytoOne, tissue culture treated, Starlab, Hamburg, Germany) in densities of 1 × 10^3 CH1/PA-1, 2 × 10^3 SW480, 3 × 10^3 A549 and 7 × 10^3 IMR-90 cells per well (each in 100 µL). After a 24 h preincubation, drugs were added in serial dilution to give a final volume of 200 µL/well and exposed for 96 h. At the end of the exposure, the drug solutions were replaced by 100 µL RPMI 1640/MTT mixture (7:1 ratio). MTT (3-(4,5-dimethylthiazol-2-yl)-2,5-diphenyl-2H-tetrazolium bromide), (Acros Organics, Geel, Belgium) solution was prepared in phosphate-buffered saline (5 mg/mL) and mixed with RPMI1640 medium supplemented with 4 mM L-glutamine (both from Sigma-Aldrich) and 10% FBS. After 4 h incubation, the formazan crystals were solubilized in 150 µL of DMSO per well. Absorbance was measured at 550 nm (and at 690 nm as a reference) with a microplate reader (ELx808, BioTek, Winoosky, VT, USA) and Gen5^TM 3.08 software (BioTek). The 50% inhibitory concentrations (IC50) relative to untreated controls were interpolated from concentration-effect curves. At least three biologically and technically independent experiments were performed.

[2] = test system: HT29 multicellular tumor spheroids; assay: Resazurin assay, HT29 3D spheroids; format: cell-based, human; conditions: 96 h
Protocol: as §1
(§2) For growing multicellular tumor spheroids, 400 HCT116, 400 HT29 or 800 MCF-7 cells per well were plated into round-bottom ultra-low attachment 96-well plates (Corning, Glendale, AZ, USA) in the media described above and incubated at 37 °C for 96 h. Spheroids were treated with 10 µM of the two most cytotoxic compounds 3 and 4 for another 96 h. The diameters of the spheroids were measured with Cell^F software under a CKX41 Olympus microscope before treatment and in constant daily intervals over the 96 h treatment period. For statistical analysis the t-test with Welsh’s correction was implemented in GraphPad Prism software (Version 6.01).
(§3) For the resazurin assay in monolayer cultures, cells were seeded into 96-well microculture plates (CytoOne, tissue culture treated, Starlab, Hamburg, Germany) in densities of 2 × 10^3 HCT116, 2 × 10^3 HT29 and 4 × 10^3 MCF-7 cells per well (each in 100 µL). For tests in 3D cultures, spheroids were grown as described above. After 24 h (for monolayers) or 4 days (for spheroids) the test compounds in the appropriate medium were added in serial dilution to the plates to obtain a total volume of 200 µL/well. Wells without cells, containing medium and resazurin (Alfa Aesar, Thermo Fisher, Kandel, Germany) solution were used as blanks. After 96 h exposure 20 µL of the resazurin solution (440 µM) were added to each well, followed by a 4 h (2D) or 12 h (3D) incubation period. Resorufin fluorescence was quantified at 530 nm (and a reference wavelength of 620 nm) by using a microplate reader (Synergy HT, BioTek) with Gen5^TM 3.10 software (BioTek).

[3] = test system: HCT116 multicellular tumor spheroids; assay: Resazurin assay, HCT116 3D spheroids; format: cell-based, human; conditions: 96 h
Protocol: as §1, §2, §3

HCT116 cells [4] = assay: Resazurin assay, HCT116 2D monolayer; format: cell-based, human; conditions: 96 h
Protocol: as §1, §3

MCF-7 cells [5] = assay: Annexin V-FITC/PI apoptosis assay, MCF-7; conditions: MCF-7, 24 h, 200 µM
HCT116 cells [6] = assay: Annexin V-FITC/PI apoptosis assay, HCT116; format: cell-based, human; conditions: HCT116, 24 h, 200 µM
MCF-7 cells [7] = assay: Resazurin assay, MCF-7 2D monolayer; format: cell-based, human; conditions: 96 h
Protocol: as §1, §3

[8] = test system: MCF-7 multicellular tumor spheroids; assay: Resazurin assay, MCF-7 3D spheroids; format: cell-based, human; conditions: 96 h
Protocol: as §1, §2, §3

HT29 cells = assay: Annexin V-FITC/PI apoptosis assay, HT29; conditions: HT29, 24 h, 200 µM

## Cc1occc(=S)c1[O-].F[P-](F)(F)(F)(F)F.[W+4].c1cc[cH-]c1.c1cc[cH-]c1 [Compound 2, Bis(η^5-cyclopentadienyl)[2-methyl-3-(oxo-κO)-4-(1H)-pyran-4-thionato-κS]tungsten(IV) hexafluorophosphate]
[1]
  IC50: 24 ± 3 µM
[2]
  ratio 3D/2D of IC50 values, HT29: > 3.8
[2]; spheroids
  IC50: > 200 µM
[3]
  ratio 3D/2D of IC50 values, HCT116: 1.6
[3]; spheroids
  IC50: 158 ± 28 µM
HCT116 cells [4]
  IC50: 98 ± 12 µM
MCF-7 cells [5]
  early apoptotic cells [%] AV+ / PI-: 7.4 ± 2.7%
  late apoptotic cells [%] AV+ / PI+: 22.7 ± 4.5%
  necrotic cells [%] AV- / PI+: 14.9 ± 8.3%
  viable cells [%] AV- / PI-: 55.1 ± 10.1%
HCT116 cells [6]
  early apoptotic cells [%] AV+ / PI-: 7.2 ± 1.9%
  late apoptotic cells [%] AV+ / PI+: 27.1 ± 17.6%
  necrotic cells [%] AV- / PI+: 2.2 ± 0.2%
  viable cells [%] AV- / PI-: 63.5 ± 18.6%
MCF-7 cells [7]
  IC50: 66 ± 12 µM
[8]
  ratio 3D/2D of IC50 values, MCF-7: > 3.0
[8]; spheroids
  IC50: > 200 µM
HT29 cells
  early apoptotic cells [%] AV+ / PI-: 3.9 ± 1.8%
  late apoptotic cells [%] AV+ / PI+: 6.1 ± 1.0%
  necrotic cells [%] AV- / PI+: 3.3 ± 2.4%
  viable cells [%] AV- / PI-: 86.8 ± 2.4%
HT29 cells; sum of early and late
  ∑apoptotic cells [%]: 10%
